Results from ChEMBL document CHEMBL3132770, “4-Aminocyclopentane-1,3-diols as platforms for diversity: synthesis of a screening library” (Medchemcomm, 2014).

Assays:
Format in all cases: functional, cell-based
[1] = Cytotoxicity against human LCLC-103H cells assessed as growth inhibition after 96 hrs by crystal violet staining assay
[2] = system: DAN-G; assay: Cytotoxicity against human DAN-G cells assessed as growth inhibition after 96 hrs by crystal violet staining assay
[3] = system: MCF7; assay: Cytotoxicity against human MCF7 cells assessed as growth inhibition after 96 hrs by crystal violet staining assay; settings: MCF7, 96 h
[4] = system: 5637; assay: Cytotoxicity against human 5637 cells assessed as growth inhibition after 96 hrs by crystal violet staining assay; settings: Homo sapiens, 5637, 96 h

| Structure (SMILES) | IC50 [1] | IC50 [2] | IC50 [3] | IC50 [4] |
| --- | --- | --- | --- | --- |
| O=C(CCC(=O)c1ccc(-c2ccccc2)cc1)N[C@H]1C[C@H](OCc2ccccc2)C[C@@H]1O (racemic) | > 20 µM | > 20 µM | 14.2 µM | 20.4 µM |
| O=C(O)CCCc1ccc(N(CCCl)CCCl)cc1 [CHLORAMBUCIL] | 14.5 µM | 27.8 µM | – | – |
| N[C@@H](Cc1ccc(N(CCCl)CCCl)cc1)C(=O)O [MELPHALAN] | 4 µM | – | – | 1.32 µM |
| O=C(CCCc1c[nH]c2ccccc12)N[C@@H]1C[C@H](Oc2ccc(-c3ccccc3)cc2)C[C@H]1O (racemic) | 13.6 µM | 12.8 µM | 6.76 µM | 11.9 µM |
| O=C(N[C@@H]1C[C@H](Oc2ccc(-c3ccccc3)cc2)C[C@H]1O)C(c1ccccc1)c1ccccc1 (racemic) | 12.3 µM | 13 µM | 8.91 µM | 12.2 µM |
| O=C(N[C@H]1C[C@H](Oc2ccc(-c3ccccc3)cc2)C[C@@H]1O)C(c1ccccc1)c1ccccc1 (racemic) | 13.1 µM | 17.5 µM | 10.3 µM | 12.5 µM |
| O=C(CCC(=O)c1ccc(-c2ccccc2)cc1)N[C@@H]1C[C@H](OCc2ccccc2)C[C@H]1O (racemic) | > 20 µM | > 20 µM | 16 µM | > 20 µM |
